“And” between values parts separate entries of the source, which are not always exact repeats. Equal entries are not always repeated. Where two headings read alike, the source gives them in different places.
Experiments:
[1] = system: MOLT-4 (acute lymphoblastic leukemia); assay: WST-1 cell proliferation assay, cytotoxicity screening; type: cell-based, human; conditions: Homo sapiens, read-out: growth percent (GP) MOLT-4
From the text: (§1) Selected human tumor and nontumor cell lines Jurkat (acute T-cell leukemia), MOLT-4 (acute lymphoblastic leukemia), A549 (lung carcinoma), HT-29 (colorectal adenocarcinoma), PANC-1 (pancreas epithelioid carcinoma), A2780 (ovarian carcinoma), HeLa (cervix adenocarcinoma), MCF-7 (breast adenocarcinoma), SAOS-2 (osteosarcoma) and MRC-5 (nontumor lung fibroblasts) were purchased from European Collection of Authenticated Cell Cultures (ECACC, Salisbury, UK) and cultured according to the provider’s culture method guidelines. […] The cells in low passage number (nontumor primary cell line MRC-5 was used for a maximum of 10 passages and cancer cell lines were used for a maximum of 20 passages) and in an exponential growth phase were used for this study.
(§2) Each cell line was seeded at a previously established optimal density (1 × 10^3 to 50 × 10^3 cells per well) in a 96-well plate (TPP, Trasadingen, Switzerland) and cells were allowed to settle overnight. During screening tests for cytotoxicity, cells were treated with alkaloids at a final concentration of 10 μM for 48 h. Doxorubicin (Sigma-Aldrich, St. Louis, USA), at a concentration of 1 μM, was used as a positive control. At the end of the culture period, the WST-1 proliferation assay (Roche, Basel, Switzerland) was performed according to the manufacturer’s protocol. The absorbance was determined using a Tecan Spark microplate reader (Tecan, Männedorf, Switzerland). Each value is the mean of three independent experiments and represents the percentage of the proliferation of control, nontreated cells (100%). The growth percent (GP) value as the mean of the proliferation decrease was calculated for each cell line and derivative tested.

[2] = system: MCF-7 (breast adenocarcinoma); assay: as above; type: cell-based, human; conditions: Homo sapiens, read-out: growth percent (GP) MCF-7
From the text: as §1, §2

[3] = system: nine human tumor and one nontumor cell lines; assay: Cytotoxicity screening across the whole panel of cell lines; type: cell-based; conditions: Homo sapiens, read-out: GP value across the tested cell lines
From the text: Concerning the cytotoxicity of alkaloids isolated from Z. citrina, initially, Prakash and Vedanayaki investigated the MeOH extract of the bulbs for its in vitro cytotoxic activity using the MTT assay against three human cancer cell lines from different tissue origins: cervical cancer (HeLa), breast cancer (MCF-7), and oral squamous carcinoma (SCC-9). […] In this context, and to assess potential negative effects on human cell cultures, compounds 1, and 3–27 were screened in our study for cytotoxicity using a 10 μM single-dose regimen. The results were compared with those using the clinically approved antineoplastic agent doxorubicin at 1 μM. The effect on cell growth was investigated on nine human tumor and one nontumor cell lines, namely Jurkat (acute T-cell leukemia), MOLT-4 (acute lymphoblastic leukemia), A549 (lung carcinoma), HT-29 (colorectal adenocarcinoma), PANC-1 (pancreas epithelioid carcinoma), A2780 (ovarian carcinoma), HeLa (cervix adenocarcinoma), MCF-7 (breast adenocarcinoma), SAOS-2 (osteosarcoma) and MRC-5 (nontumor lung fibroblasts). […] No toxicity is valuable information, especially for compound 18, as it is a potent inhibitor of hAChE and hBChE.[27]
Selected human tumor and nontumor cell lines Jurkat (acute T-cell leukemia), MOLT-4 (acute lymphoblastic leukemia), A549 (lung carcinoma), HT-29 (colorectal adenocarcinoma), PANC-1 (pancreas epithelioid carcinoma), A2780 (ovarian carcinoma), HeLa (cervix adenocarcinoma), MCF-7 (breast adenocarcinoma), SAOS-2 (osteosarcoma) and MRC-5 (nontumor lung fibroblasts) were purchased from European Collection of Authenticated Cell Cultures (ECACC, Salisbury, UK) and cultured according to the provider’s culture method guidelines. All cell lines were maintained at 37 °C in a humidified 5% carbon dioxide and 95% air incubator. The cells in low passage number (nontumor primary cell line MRC-5 was used for a maximum of 10 passages and cancer cell lines were used for a maximum of 20 passages) and in an exponential growth phase were used for this study.
as §2

hBChE = target: T1, hBChE (Homo sapiens, UniProt P06276); assay: biochemical; type: biochemical; conditions: recombinant BChE, Ellman, 37 °C
T1 construct: purchased University Hradec Kralove, Department of Chemistry, Faculty of Science
Procedure: (§3) The hAChE and hBChE activities were determined using a modified method of Ellman, as described by Hrabinova and co-workers against recombinant AChE and recombinant BChE (purchased from University Hradec Kralove, Department of Chemistry, Faculty of Science).[43] Other used chemicals were phosphate buffer solution (PBS, pH = 7.4), 5,5′-dithio-bis(2-nitrobenzoic) acid (Ellman’s reagent, DTNB), acetylthiocholine iodide (ATChI), butyrylthiocholine iodide (BTChI), and dimethyl sulfoxide (DMSO) (all chemicals were purchased from Sigma-Aldrich, Prague, Czech Republic).
(§4) Briefly, 8.3 μL of the corresponding enzyme, 283 μL of 5 mM DTNB, and 8.3 μL of the sample dilution in DMSO in different concentrations were added to the microplate. These solutions were incubated for 5 min at 37 °C. Then, 33.3 μL of 10 mM substrate (ATChI or BTChI) was added to initiate the reaction, and the whole reaction mixture was incubated for 2 min at 37 °C. […] This difference after 1 min was used to calculate the percentage of inhibitory potential of the given derivative. Each measurement was repeated three times for every concentration of the compound. 8.3 μL DMSO was used as a blank. The % inhibition was calculated according to the following formula: [drawing 3] where ΔABl is the increase of absorbance of the blank sample and ΔASa is the increase of absorbance of the measured sample.

hAChE = target: T2, hAChE (Homo sapiens, UniProt P22303); assay: biochemical; type: biochemical; conditions: recombinant AChE, Ellman, 37 °C
T2 construct: purchased University Hradec Kralove, Department of Chemistry, Faculty of Science
Procedure: as §3, §4

A549 (lung carcinoma) = assay: WST-1 cell proliferation assay, cytotoxicity screening; type: cell-based; conditions: Homo sapiens, read-out: growth percent (GP) A549
From the text: as §1, §2

[4] = system: Jurkat (acute T-cell leukemia); assay: as above; type: cell-based; conditions: Homo sapiens, 48 h, read-out: growth percent (GP) Jurkat
From the text: as §1, §2

[5] = system: HT-29 (colorectal adenocarcinoma); assay: as above; type: cell-based; conditions: Homo sapiens, read-out: growth percent (GP) HT-29
From the text: as §1, §2

[6] = system: MRC-5 (nontumor lung fibroblasts); assay: as above; type: cell-based; conditions: Homo sapiens, read-out: growth percent (GP) MRC-5
From the text: as §1, §2

[7] = system: A2780 (ovarian carcinoma); assay: as above; type: cell-based; conditions: Homo sapiens, read-out: growth percent (GP) A2780
From the text: as §1, §2

SAOS-2 (osteosarcoma) = assay: as above; type: cell-based; conditions: Homo sapiens, read-out: growth percent (GP) SAOS-2
From the text: as §1, §2

[8] = system: HeLa (cervix adenocarcinoma); assay: as above; type: cell-based; conditions: Homo sapiens, 48 h, read-out: growth percent (GP) HeLa
From the text: as §1, §2

[9] = system: PANC-1 (pancreas epithelioid carcinoma); assay: as above; type: cell-based; conditions: Homo sapiens, read-out: growth percent (GP) PANC-1
From the text: as §1, §2

[10] = MOLT-4, c = 10 μM, 48 h, % of proliferation of nontreated control
[11] = MCF7, c = 10 μM, 48 h, % of proliferation of nontreated control
[12] = 10 μM single dose, 48-h interval, all tested cell lines
[13] = A549, c = 10 μM, 48 h, % of proliferation of nontreated control
[14] = c = 10 μM, % of proliferation of nontreated control
[15] = HT-29, c = 10 μM, 48 h, % of proliferation of nontreated control
[16] = MRC5, c = 10 μM, 48 h, % of proliferation of nontreated control
[17] = A2780, c = 10 μM, 48 h, % of proliferation of nontreated control
[18] = SAOS-2, c = 10 μM, 48 h, % of proliferation of nontreated control
[19] = PANC-1, c = 10 μM, 48 h, % of proliferation of nontreated control

T2 sequence (P22303 32-614): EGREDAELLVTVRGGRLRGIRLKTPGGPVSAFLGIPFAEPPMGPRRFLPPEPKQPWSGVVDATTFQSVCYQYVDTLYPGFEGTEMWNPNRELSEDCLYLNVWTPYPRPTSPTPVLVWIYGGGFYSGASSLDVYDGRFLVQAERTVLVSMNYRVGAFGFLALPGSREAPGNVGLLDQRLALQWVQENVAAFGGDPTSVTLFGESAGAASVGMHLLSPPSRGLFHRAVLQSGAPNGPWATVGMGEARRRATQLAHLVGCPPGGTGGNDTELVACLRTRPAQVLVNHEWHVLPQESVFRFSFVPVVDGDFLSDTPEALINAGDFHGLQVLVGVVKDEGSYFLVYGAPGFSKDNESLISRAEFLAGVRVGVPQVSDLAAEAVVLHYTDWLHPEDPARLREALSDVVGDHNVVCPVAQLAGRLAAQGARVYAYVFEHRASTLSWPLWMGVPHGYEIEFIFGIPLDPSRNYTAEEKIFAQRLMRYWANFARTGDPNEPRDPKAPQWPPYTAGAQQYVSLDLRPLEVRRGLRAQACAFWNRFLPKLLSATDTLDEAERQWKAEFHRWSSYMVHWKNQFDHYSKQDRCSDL
T1 sequence (P06276 29-602): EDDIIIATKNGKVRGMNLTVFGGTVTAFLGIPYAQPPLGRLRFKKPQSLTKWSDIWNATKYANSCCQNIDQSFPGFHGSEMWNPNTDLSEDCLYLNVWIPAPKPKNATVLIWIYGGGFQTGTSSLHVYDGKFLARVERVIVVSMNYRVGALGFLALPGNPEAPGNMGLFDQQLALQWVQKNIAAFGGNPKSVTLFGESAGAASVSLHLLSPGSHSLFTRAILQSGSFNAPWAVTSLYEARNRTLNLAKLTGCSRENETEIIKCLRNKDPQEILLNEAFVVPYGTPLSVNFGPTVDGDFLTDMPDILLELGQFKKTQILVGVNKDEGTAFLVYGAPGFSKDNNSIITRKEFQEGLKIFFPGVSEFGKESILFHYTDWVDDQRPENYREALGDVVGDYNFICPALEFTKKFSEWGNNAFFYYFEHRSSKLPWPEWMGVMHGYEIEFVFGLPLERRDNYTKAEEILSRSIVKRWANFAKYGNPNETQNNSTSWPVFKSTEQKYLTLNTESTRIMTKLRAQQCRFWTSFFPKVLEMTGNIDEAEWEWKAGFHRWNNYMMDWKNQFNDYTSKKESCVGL

SMILES: COc1cc2c(cc1OC)[C@@]13C=C[C@@H](OC)C[C@@H]1N(C2)C[C@@H]3O [Compound 1, zephycitrine]
- activity at 10 µM [1, 10]: 99%
- activity at 10 µM [2, 11]: 106%
- activity at 10 µM [3, 12]: > 50%
- IC50 (hBChE): > 100 µM
- IC50 (hAChE): > 100 µM
- activity at 10 µM (A549 (lung carcinoma); [13]): 100%
- activity at 10 µM [4, 14]: 111%
- activity at 10 µM [5, 15]: 101%
- activity at 10 µM [6, 16]: 107%
- activity at 10 µM [7, 17]: 98%
- activity at 10 µM (SAOS-2 (osteosarcoma); [18]): 101%
- activity at 10 µM [8, 14]: 97%
- activity at 10 µM [9, 19]: 102%

SMILES: CCO[C@H]1c2cc(OC)c(OC)c(O)c2[C@@]23CC[C@H](OC)C[C@@H]2N1CC3 [Compound 3, 6-O-ethylzephyranine F]
- activity at 10 µM ([1]; MOLT-4, 48 h): 101%
- activity at 10 µM ([2]; MCF7, 48 h): 97%
- activity at 10 µM ([3]; 48 h): > 50%
- IC50 (hBChE): > 100 µM
- IC50 (hAChE): > 100 µM
- activity at 10 µM (A549 (lung carcinoma); A549, 48 h): 103%
- activity at 10 µM [4]: 108%
- activity at 10 µM ([5]; HT-29, 48 h): 103%
- activity at 10 µM ([6]; MRC5, 48 h): 104%
- activity at 10 µM ([7]; A2780, 48 h): 110%
- activity at 10 µM (SAOS-2 (osteosarcoma); SAOS-2, 48 h): 99%
- activity at 10 µM [8]: 108%
- activity at 10 µM ([9]; PANC-1, 48 h): 101%

SMILES: CCO[C@H]1c2cc(OC)c(OC)cc2[C@@]23CC[C@H](OC)C[C@@H]2N1CC3 [Compound 4, 6-O-ethylzephyranine E]
- activity at 10 µM ([1]; MOLT-4, 48 h): 101%
- activity at 10 µM ([2]; MCF7, 48 h): 96%
- activity at 10 µM ([3]; 48 h): > 50%
- IC50 (hBChE): > 100 µM
- IC50 (hAChE): > 100 µM
- activity at 10 µM (A549 (lung carcinoma); A549, 48 h): 100%
- activity at 10 µM [4]: 90%
- activity at 10 µM ([5]; HT-29, 48 h): 91%
- activity at 10 µM ([6]; MRC5, 48 h): 99%
- activity at 10 µM ([7]; A2780, 48 h): 85%
- activity at 10 µM (SAOS-2 (osteosarcoma); SAOS-2, 48 h): 98%
- activity at 10 µM [8]: 109%
- activity at 10 µM ([9]; PANC-1, 48 h): 88%

SMILES: COc1cc2c(cc1OC)[C@@H]1[C@H](O)[C@@H](OC)[C@H](O)C3=CCN(C2)[C@H]31 [Compound 6, narcissidine]
- activity at 10 µM [1, 10]: 101%
- activity at 10 µM [2, 11]: 103%
- activity at 10 µM [3, 12]: > 50%
- IC50 (hBChE): > 100 µM
- IC50 (hAChE): > 100 µM
- activity at 10 µM (A549 (lung carcinoma); [13]): 113%
- activity at 10 µM [4, 14]: 111%
- activity at 10 µM [5, 15]: 108%
- activity at 10 µM [6, 16]: 101%
- activity at 10 µM [7, 17]: 101%
- activity at 10 µM (SAOS-2 (osteosarcoma); [18]): 101%
- activity at 10 µM [8, 14]: 123%
- activity at 10 µM [9, 19]: 102%

SMILES: COc1ccc2c3c1O[C@H]1C[C@@H](O)CC[C@@]31CCNC2 [Compound 7, norlycoramine]
- activity at 10 µM ([1]; MOLT-4, 48 h): 99%
- activity at 10 µM ([2]; MCF7, 48 h): 97%
- activity at 10 µM ([3]; 48 h): > 50%
- IC50 (hBChE): > 100 µM
- IC50 (hAChE): > 100 µM and 155 µM
- activity at 10 µM (A549 (lung carcinoma); A549, 48 h): 103%
- activity at 10 µM [4]: 103%
- activity at 10 µM ([5]; HT-29, 48 h): 100%
- activity at 10 µM ([6]; MRC5, 48 h): 98%
- activity at 10 µM ([7]; A2780, 48 h): 97%
- activity at 10 µM (SAOS-2 (osteosarcoma); SAOS-2, 48 h): 97%
- activity at 10 µM [8]: 98%
- activity at 10 µM ([9]; PANC-1, 48 h): 103%

SMILES: COc1cc2c(c(O)c1OC)[C@@]13CC[C@H](O)C[C@@H]1N(CC3)C2O (stereo partly drawn) [Compound 8, zephyranine C]
- activity at 10 µM ([1]; MOLT-4, 48 h): 98%
- activity at 10 µM ([2]; MCF7, 48 h): 112%
- activity at 10 µM ([3]; 48 h): > 50%
- IC50 (hBChE): > 100 µM
- IC50 (hAChE): > 100 µM
- activity at 10 µM (A549 (lung carcinoma); A549, 48 h): 117%
- activity at 10 µM [4]: 109%
- activity at 10 µM ([5]; HT-29, 48 h): 121%
- activity at 10 µM ([6]; MRC5, 48 h): 100%
- activity at 10 µM ([7]; A2780, 48 h): 105%
- activity at 10 µM (SAOS-2 (osteosarcoma); SAOS-2, 48 h): 111%
- activity at 10 µM [8]: 117%
- activity at 10 µM ([9]; PANC-1, 48 h): 110%
